Calls of active or inactive are those of the source. No cut-off for these calls is given here.
What was measured:
[1] = biological target: T1, Tyrosine-protein phosphatase non-receptor type 11 (Mus musculus) (UniProt P35235); assay: Inhibition of SHP2-dependent ERK1/2 activation in EGF-stimulated mouse NIH/3T3 cells assessed as phosphorylated ERK1/2 level at 10 uM treated for 3 hrs before EGF challenge measured after 5 to 15 mins of EGF stimulation by immunoblot analysis; format: cell-based; settings: NIH3T3
T1 sequence (whole entry): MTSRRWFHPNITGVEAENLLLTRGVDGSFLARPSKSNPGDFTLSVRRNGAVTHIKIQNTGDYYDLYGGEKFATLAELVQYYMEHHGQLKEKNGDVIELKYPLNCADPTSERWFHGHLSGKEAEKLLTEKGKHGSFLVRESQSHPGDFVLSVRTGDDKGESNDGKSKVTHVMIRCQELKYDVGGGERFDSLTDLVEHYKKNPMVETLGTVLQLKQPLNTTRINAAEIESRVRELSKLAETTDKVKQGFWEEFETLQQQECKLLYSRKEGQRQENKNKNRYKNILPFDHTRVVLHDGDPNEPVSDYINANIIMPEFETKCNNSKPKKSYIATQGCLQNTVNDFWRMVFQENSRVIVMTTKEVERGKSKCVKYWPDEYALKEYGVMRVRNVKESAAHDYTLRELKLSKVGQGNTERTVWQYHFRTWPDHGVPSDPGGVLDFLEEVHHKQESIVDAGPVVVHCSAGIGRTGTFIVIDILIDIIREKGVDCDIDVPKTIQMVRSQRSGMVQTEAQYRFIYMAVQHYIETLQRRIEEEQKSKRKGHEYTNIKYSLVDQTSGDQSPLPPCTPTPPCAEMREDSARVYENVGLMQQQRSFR

[2] = biological target: T2, Receptor-type tyrosine-protein phosphatase C (Homo sapiens, UniProt P08575); assay: Inhibition of CD45 expressed in Escherichia coli assessed as inhibition of p-nitrophenyl phosphate hydrolysis at pH 7 by spectrophotometry
T2 sequence (P08575 whole entry): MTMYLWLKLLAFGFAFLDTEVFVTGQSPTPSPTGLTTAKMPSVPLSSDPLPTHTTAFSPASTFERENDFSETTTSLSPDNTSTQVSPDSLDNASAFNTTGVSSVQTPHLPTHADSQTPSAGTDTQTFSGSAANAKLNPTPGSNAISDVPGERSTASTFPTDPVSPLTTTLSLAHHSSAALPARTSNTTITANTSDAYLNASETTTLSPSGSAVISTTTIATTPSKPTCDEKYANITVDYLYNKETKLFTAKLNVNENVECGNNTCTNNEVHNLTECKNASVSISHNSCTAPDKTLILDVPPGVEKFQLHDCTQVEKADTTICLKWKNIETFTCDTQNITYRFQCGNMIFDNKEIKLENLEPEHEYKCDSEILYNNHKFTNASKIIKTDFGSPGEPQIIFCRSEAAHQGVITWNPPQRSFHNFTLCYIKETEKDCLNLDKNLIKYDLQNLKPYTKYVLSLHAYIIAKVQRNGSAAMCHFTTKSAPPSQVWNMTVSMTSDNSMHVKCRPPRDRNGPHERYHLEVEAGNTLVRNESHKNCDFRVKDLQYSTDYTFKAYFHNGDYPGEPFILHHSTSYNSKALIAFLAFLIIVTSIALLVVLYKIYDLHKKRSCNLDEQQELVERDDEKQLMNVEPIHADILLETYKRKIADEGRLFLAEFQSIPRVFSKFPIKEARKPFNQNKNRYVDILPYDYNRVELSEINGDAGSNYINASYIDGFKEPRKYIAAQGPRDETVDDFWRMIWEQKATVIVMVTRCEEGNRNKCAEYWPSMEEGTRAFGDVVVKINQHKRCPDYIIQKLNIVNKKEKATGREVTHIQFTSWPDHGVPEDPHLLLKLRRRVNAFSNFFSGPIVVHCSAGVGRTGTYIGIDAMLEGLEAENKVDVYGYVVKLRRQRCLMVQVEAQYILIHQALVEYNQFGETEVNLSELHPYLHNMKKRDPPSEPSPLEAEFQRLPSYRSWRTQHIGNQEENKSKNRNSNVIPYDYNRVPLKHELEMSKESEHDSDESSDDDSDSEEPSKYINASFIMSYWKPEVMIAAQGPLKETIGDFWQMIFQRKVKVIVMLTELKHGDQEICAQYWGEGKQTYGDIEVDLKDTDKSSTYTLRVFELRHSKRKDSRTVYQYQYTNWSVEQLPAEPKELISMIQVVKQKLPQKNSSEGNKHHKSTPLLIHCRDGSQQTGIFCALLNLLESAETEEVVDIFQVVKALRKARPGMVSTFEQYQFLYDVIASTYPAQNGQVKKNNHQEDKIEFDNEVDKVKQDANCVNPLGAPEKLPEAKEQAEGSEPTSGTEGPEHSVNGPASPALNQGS

[3] = biological target: T3, Tyrosine-protein phosphatase non-receptor type 1 (Homo sapiens, UniProt P18031); assay: Inhibition of PTP1B expressed in Escherichia coli assessed as inhibition of p-nitrophenyl phosphate hydrolysis at pH 7 by spectrophotometry
T3 sequence (P18031 whole entry): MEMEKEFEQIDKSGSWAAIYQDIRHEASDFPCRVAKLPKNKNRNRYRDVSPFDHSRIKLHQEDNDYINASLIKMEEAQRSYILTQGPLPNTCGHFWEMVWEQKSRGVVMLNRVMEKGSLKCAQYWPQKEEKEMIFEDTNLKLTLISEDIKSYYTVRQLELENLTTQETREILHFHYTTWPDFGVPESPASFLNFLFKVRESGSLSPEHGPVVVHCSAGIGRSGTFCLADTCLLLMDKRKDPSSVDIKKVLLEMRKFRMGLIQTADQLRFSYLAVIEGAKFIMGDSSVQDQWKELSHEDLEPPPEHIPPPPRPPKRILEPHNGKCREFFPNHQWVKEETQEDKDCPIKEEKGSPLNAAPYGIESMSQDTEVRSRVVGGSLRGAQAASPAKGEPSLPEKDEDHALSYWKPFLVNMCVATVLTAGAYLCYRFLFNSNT

[4] = biological target: T4, Low molecular weight phosphotyrosine protein phosphatase (Homo sapiens, UniProt P24666); assay: Inhibition of LMWPTP expressed in Escherichia coli assessed as inhibition of p-nitrophenyl phosphate hydrolysis at pH 7 by spectrophotometry
T4 sequence (P24666 whole entry): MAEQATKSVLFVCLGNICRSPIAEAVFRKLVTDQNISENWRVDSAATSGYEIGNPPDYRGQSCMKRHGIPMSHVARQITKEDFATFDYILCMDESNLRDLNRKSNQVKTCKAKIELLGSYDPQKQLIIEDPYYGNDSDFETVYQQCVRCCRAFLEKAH

[5] = biological target: Tyrosine-protein phosphatase non-receptor type 6 (Homo sapiens, UniProt P29350); assay: Inhibition of SHP1 expressed in Escherichia coli assessed as inhibition of p-nitrophenyl phosphate hydrolysis at pH 7 by spectrophotometry
Sequence of Tyrosine-protein phosphatase non-receptor type 6 (P29350 whole entry): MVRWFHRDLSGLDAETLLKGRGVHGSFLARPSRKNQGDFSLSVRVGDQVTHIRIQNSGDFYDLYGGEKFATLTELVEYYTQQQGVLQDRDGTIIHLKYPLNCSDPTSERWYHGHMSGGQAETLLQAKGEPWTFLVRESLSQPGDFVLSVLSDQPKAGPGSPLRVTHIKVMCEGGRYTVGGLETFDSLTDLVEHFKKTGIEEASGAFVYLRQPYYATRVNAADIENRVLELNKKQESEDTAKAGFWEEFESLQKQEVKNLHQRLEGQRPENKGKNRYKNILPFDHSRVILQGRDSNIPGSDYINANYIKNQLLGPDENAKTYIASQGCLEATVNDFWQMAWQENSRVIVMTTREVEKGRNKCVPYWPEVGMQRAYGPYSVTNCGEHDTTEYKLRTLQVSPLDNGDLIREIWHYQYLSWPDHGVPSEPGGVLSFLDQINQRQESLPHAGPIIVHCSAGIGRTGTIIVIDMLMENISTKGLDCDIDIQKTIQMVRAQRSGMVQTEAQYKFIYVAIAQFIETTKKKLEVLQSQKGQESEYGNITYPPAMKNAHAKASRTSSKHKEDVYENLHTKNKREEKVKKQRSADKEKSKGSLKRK

[6] = biological target: Tyrosine-protein phosphatase non-receptor type 13 (Homo sapiens, UniProt Q12923); assay: Inhibition of FAP1 expressed in Escherichia coli assessed as inhibition of p-nitrophenyl phosphate hydrolysis at pH 7 by spectrophotometry
Sequence of Tyrosine-protein phosphatase non-receptor type 13 (Q12923 whole entry): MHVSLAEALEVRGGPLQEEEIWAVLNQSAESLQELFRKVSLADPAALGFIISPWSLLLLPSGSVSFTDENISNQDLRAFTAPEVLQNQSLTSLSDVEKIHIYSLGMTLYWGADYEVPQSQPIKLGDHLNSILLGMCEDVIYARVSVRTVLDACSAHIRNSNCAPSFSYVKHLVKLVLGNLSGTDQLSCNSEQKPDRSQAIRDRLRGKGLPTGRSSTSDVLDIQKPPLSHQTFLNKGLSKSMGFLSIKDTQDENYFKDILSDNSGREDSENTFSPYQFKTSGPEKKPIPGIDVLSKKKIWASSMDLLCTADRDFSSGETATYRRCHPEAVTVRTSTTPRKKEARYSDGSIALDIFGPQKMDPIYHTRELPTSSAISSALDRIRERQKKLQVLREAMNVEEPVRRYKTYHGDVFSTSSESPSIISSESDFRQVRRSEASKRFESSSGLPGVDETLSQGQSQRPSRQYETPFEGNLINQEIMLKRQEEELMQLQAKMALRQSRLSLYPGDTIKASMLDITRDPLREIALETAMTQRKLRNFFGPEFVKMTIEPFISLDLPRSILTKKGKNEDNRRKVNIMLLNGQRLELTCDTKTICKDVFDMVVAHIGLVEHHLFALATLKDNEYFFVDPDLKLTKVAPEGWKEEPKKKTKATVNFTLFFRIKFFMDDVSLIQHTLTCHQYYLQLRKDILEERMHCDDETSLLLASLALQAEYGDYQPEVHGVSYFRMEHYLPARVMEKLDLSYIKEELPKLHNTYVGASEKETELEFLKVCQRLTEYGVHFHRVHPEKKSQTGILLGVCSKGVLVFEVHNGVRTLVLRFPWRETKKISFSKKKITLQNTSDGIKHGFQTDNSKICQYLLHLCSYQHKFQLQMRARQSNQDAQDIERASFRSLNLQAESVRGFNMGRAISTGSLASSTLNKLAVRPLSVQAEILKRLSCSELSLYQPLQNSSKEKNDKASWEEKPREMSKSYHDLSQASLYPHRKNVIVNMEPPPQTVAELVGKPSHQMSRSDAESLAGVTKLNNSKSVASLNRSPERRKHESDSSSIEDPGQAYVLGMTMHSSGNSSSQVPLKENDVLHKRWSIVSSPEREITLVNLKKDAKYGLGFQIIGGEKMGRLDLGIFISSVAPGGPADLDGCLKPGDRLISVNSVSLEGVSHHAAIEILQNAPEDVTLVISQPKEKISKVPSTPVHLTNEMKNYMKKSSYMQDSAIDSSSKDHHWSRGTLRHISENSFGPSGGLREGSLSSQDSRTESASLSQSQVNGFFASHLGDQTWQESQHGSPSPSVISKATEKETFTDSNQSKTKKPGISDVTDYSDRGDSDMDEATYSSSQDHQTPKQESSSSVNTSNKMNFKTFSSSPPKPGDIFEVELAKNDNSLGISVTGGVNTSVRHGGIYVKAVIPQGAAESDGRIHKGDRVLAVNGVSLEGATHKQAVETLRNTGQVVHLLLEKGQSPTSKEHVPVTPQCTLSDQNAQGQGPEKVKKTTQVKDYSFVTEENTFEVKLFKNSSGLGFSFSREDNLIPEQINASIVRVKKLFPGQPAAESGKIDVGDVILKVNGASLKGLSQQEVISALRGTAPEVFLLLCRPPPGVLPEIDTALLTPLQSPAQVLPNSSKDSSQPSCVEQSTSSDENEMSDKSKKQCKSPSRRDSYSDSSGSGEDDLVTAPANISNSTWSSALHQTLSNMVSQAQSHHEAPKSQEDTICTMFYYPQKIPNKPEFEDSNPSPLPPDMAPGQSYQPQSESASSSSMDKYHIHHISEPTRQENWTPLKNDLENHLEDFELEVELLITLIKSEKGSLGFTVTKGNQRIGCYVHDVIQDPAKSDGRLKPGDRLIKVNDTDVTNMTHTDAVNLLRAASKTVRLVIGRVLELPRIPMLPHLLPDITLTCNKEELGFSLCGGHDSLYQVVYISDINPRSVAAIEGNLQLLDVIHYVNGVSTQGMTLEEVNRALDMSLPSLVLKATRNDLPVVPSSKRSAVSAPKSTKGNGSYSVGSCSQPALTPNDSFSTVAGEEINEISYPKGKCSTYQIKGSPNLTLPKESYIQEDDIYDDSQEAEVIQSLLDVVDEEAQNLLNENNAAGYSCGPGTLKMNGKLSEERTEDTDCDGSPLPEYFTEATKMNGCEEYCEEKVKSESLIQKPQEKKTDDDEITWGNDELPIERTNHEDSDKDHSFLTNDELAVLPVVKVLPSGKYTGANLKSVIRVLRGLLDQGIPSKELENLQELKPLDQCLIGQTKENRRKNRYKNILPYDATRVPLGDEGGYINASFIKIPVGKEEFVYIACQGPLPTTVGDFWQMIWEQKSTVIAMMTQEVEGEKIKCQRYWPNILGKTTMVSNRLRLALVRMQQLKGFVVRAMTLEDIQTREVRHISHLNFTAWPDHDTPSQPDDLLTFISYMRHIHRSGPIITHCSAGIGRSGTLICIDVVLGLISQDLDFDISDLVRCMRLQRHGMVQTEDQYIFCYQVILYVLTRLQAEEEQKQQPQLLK

- inhibition [1]: inactive
- IC50 [2]: 30 µM
- IC50 [3]: 14.3 µM
- IC50 [4]: 31.1 µM
- IC50 [5]: 15.7 µM
- IC50 [6]: 20.3 µM
SMILES: Cn1c(-c2ccccc2)c(-c2cn(CCC(=O)Nc3ccc(-c4ccccc4)cc3)nn2)c2cc(C(=O)O)c(O)cc21

From ChEMBL document CHEMBL1157613, “Salicylic acid based small molecule inhibitor for the oncogenic Src homology-2 domain containing protein tyrosine phosphatase-2 (SHP2)” (J Med Chem, 2010)
